From US12049518B2, “Pharmacokinetics and cholecystokinin-2 receptor (CCK2R) targeting for diagnosis and therapy” (Medizinische Universitat Innsbruck, priority 2017, dated 2024)
Where a SMILES comes first, the peptide text is derived from it. [ ]: non-standard residue; d: D form. The star is where a group is joined. DOTA = O=C(O)CN1CCN(CC(=O)O)CCN(CC(=O)*)CCN(CC(=O)O)CC1; 1Nal = N[C@@H](Cc1cccc2ccccc12)C(=O)O; NMeNle = CCCC[C@H](NC)C(=O)O

Legend:
[1] = system: serum proteins; assay: protein binding to serum proteins (Sephadex G-50 size-exclusion chromatography); assay type: in vitro ADME; details: 37° C.; for fraction unbound at 4 h, 500 pmol/mL / fraction unbound at 24 h, 500 pmol/mL: fresh human serum; for fraction unbound at 4 h, 500 pmol/mL: read-out: Percentage of radioligand bound to serum proteins after 4 h incubation (converted); for fraction unbound at 24 h, 500 pmol/mL: read-out: Percentage of radioligand bound to serum proteins after 24 h incubation (converted); for Percentage of radioligand bound to serum proteins after 24 h incubation: human serum
Experimental: Additionally, protein binding to serum proteins was investigated. For this purpose the ^111In-labelled peptidomimetics were incubated in duplicates in fresh human serum at 37° C. (500 pmol/mL) and analyzed after 4 and 24 h by Sephadex G-50 size-exclusion chromatography (GE Healthcare Illustra, Little Chalfont, UK). The percentage of protein binding was determined by measuring the column and the eluate in a 2480 Wizard 2 automatic gamma-counter (Perkin Elmer Life Sciences and Analytical Sciences, Turku, F).

[2] = stability in vivo (radio-HPLC of blood sample); details: BALB/c mice, i.v.
Experimental: To further characterise the stability of the radiolabelled peptidomimetics in vivo, metabolic studies were carried out in 5-6-week-old female BALB/c mice (Charles River, Sulzfeld, Germany) injected intravenously with the ^111In- and […] peptidomimetics. All animal experiments were conducted in compliance with the Austrian animal protection laws and with the approval of the Austrian Ministry of Science. To allow monitoring of the metabolites by radio-HPLC, mice were injected with a higher amount of radioactivity (5-15 MBq ^111In and 20-40 MBq ^177Lu, corresponding to 1-2 nmol total peptide) through a lateral tail vein and euthanized by cervical dislocation 10 or 30 min post injection (p.i.). A sample of blood was collected and the degradation was assessed by radio-HPLC.

| fraction unbound at 4 h, 500 pmol/mL [1] | fraction unbound at 24 h, 500 pmol/mL [1] | Percentage of radioligand bound to serum proteins after 24 h incubation [1] | intact radioligand present in the blood at 10 min p.i. [2] | Structure (SMILES) | intact radioligand present in the blood at 30 min p.i. [2] |
| --- | --- | --- | --- | --- | --- |
|  |  |  | 80.0±5.2% | CCCC[C@@H](C(=O)N[C@@H](CC(=O)O)C(=O)N[C@@H](Cc1cccc2ccccc12)C(N)=O)N(C)C(=O)[C@H](Cc1c[nH]c2ccccc12)NC(=O)CNC(=O)[C@H](Cc1ccc(O)cc1)NC(=O)[C@@H]1CCCN1C(=O)[C@@H](CCC(=O)O)NC(=O)CN1CCN(CC(=O)O)CCN(CC(=O)O)CCN(CC(=O)O)CC1 [^111In-DOTA-MGS8, metal not drawn] ({DOTA}-[dE]PYGW[NMeNle]D[1Nal]-NH2) |  |
| 0.433 |  |  | 82.3±1.8% | CCCC[C@@H](C(=O)N[C@@H](CC(=O)O)C(=O)N[C@@H](Cc1cccc2ccccc12)C(N)=O)N(C)C(=O)[C@H](Cc1c[nH]c2ccccc12)NC(=O)CNC(=O)[C@@H]1CCCN1C(=O)[C@H](Cc1ccc(O)cc1)NC(=O)[C@@H](CCC(=O)O)NC(=O)CN1CCN(CC(=O)O)CCN(CC(=O)O)CCN(CC(=O)O)CC1 [^111In-DOTA-MGS10, metal not drawn] ({DOTA}-[dE]YPGW[NMeNle]D[1Nal]-NH2) |  |
| 0.681 | 0.602 | ~30% | 98.4±0.1% | CCCC[C@@H](C(=O)N[C@@H](CC(=O)O)C(=O)N(C)[C@@H](Cc1cccc2ccccc12)C(N)=O)N(C)C(=O)[C@H](Cc1c[nH]c2ccccc12)NC(=O)CNC(=O)[C@H](Cc1ccc(O)cc1)NC(=O)[C@H](C)NC(=O)[C@@H](CCC(=O)O)NC(=O)CN1CCN(CC(=O)O)CCN(CC(=O)O)CCN(CC(=O)O)CC1 [^111In-DOTA-MGS11, metal not drawn] |  |
|  | 0.541 |  |  | CCCC[C@@H](C(=O)N[C@@H](CC(=O)O)C(=O)N[C@@H](Cc1cccc2ccccc12)C(N)=O)N(C)C(=O)[C@H](Cc1c[nH]c2ccccc12)NC(=O)[C@@H]1CCCN1C(=O)[C@H](Cc1ccc(O)cc1)NC(=O)[C@H](C)NC(=O)[C@@H](CCC(=O)O)NC(=O)CN1CCN(CC(=O)O)CCN(CC(=O)O)CCN(CC(=O)O)CC1 [^111In-DOTA-MGS12, metal not drawn] ({DOTA}-[dE]AYPW[NMeNle]D[1Nal]-NH2) |  |
|  |  |  | 85.9% | CCCC[C@@H](C(=O)N[C@@H](CC(=O)O)C(=O)N[C@@H](Cc1cccc2ccccc12)C(N)=O)N(C)C(=O)[C@H](Cc1c[nH]c2ccccc12)NC(=O)CNC(=O)[C@H](Cc1ccc(O)cc1)NC(=O)[C@H](C)NC(=O)[C@@H](CCC(=O)O)NC(=O)CN1CCN(CC(=O)O)CCN(CC(=O)O)CCN(CC(=O)O)CC1 [^177Lu-DOTA-MGS5, metal not drawn] | 77.0% |
|  |  |  | 80.5% | CCCC[C@@H](C(=O)N[C@@H](CC(=O)O)C(=O)N[C@@H](Cc1cccc2ccccc12)C(N)=O)N(C)C(=O)[C@H](Cc1c[nH]c2ccccc12)NC(=O)CNC(=O)[C@H](Cc1ccc(O)cc1)NC(=O)[C@@H]1CCCN1C(=O)[C@@H](CCC(=O)O)NC(=O)CN1CCN(CC(=O)O)CCN(CC(=O)O)CCN(CC(=O)O)CC1 [^177Lu-DOTA-MGS8, metal not drawn] ({DOTA}-[dE]PYGW[NMeNle]D[1Nal]-NH2) | 56.8% |

The next lines start with the compound.

| Structure (SMILES) | fraction unbound at 4 h, 500 pmol/mL [1] | fraction unbound at 24 h, 500 pmol/mL [1] | Percentage of radioligand bound to serum proteins after 24 h incubation [1] | intact radioligand present in the blood at 10 min p.i. [2] | intact radioligand present in the blood at 30 min p.i. [2] |
| --- | --- | --- | --- | --- | --- |
| CSCC[C@H](NC(=O)[C@H](Cc1c[nH]c2ccccc12)NC(=O)CNC(=O)[C@H](Cc1ccc(O)cc1)NC(=O)[C@H](C)NC(=O)[C@@H](CCC(=O)O)NC(=O)CN1CCN(CC(=O)O)CCN(CC(=O)O)CCN(CC(=O)O)CC1)C(=O)N[C@@H](CC(=O)O)C(=O)N[C@@H](Cc1cccc2ccccc12)C(N)=O [^111In-DOTA-MGS1, ^111In-DOTA-DGlu-Ala-Tyr-Gly-Trp-Met-Asp-1Nal-NH2, metal not drawn, reference compound] ({DOTA}-[dE]AYGWMD[1Nal]-NH2) | 0.8 | 0.712 |  |  |  |
| CCCC[C@@H](C(=O)N[C@@H](CC(=O)O)C(=O)N(C)[C@@H](Cc1ccccc1)C(N)=O)N(C)C(=O)[C@H](Cc1c[nH]c2ccccc12)NC(=O)CNC(=O)[C@H](Cc1ccc(O)cc1)NC(=O)[C@H](C)NC(=O)[C@@H](CCC(=O)O)NC(=O)CN1CCN(CC(=O)O)CCN(CC(=O)O)CCN(CC(=O)O)CC1 [^111In-DOTA-MGS4, ^111In-DOTA-DGlu-Ala-Tyr-Gly-Trp-(N-Me)Nle-Asp-(N-Me)Phe-NH2, metal not drawn, reference compound] | 0.911 | 0.881 | ~12% |  |  |
| CCCC[C@@H](C(=O)N[C@@H](CC(=O)O)C(=O)N[C@@H](Cc1cccc2ccccc12)C(N)=O)N(C)C(=O)[C@H](Cc1c[nH]c2ccccc12)NC(=O)CNC(=O)[C@H](Cc1ccc(O)cc1)NC(=O)[C@H](C)NC(=O)[C@@H](CCC(=O)O)NC(=O)CN1CCN(CC(=O)O)CCN(CC(=O)O)CCN(CC(=O)O)CC1 [^111In-DOTA-MGS5, metal not drawn] | 0.59 | 0.557 |  | 82.7±3.3% |  |
| CCCC[C@@H](C(=O)N[C@@H](CC(=O)O)C(=O)N[C@@H](Cc1ccc2ccccc2c1)C(N)=O)N(C)C(=O)[C@H](Cc1c[nH]c2ccccc12)NC(=O)CNC(=O)[C@H](Cc1ccc(O)cc1)NC(=O)[C@H](C)NC(=O)[C@@H](CCC(=O)O)NC(=O)CN1CCN(CC(=O)O)CCN(CC(=O)O)CCN(CC(=O)O)CC1 [^111In-DOTA-MGS5-2, metal not drawn] | 0.683 | 0.654 | ~30% | 88.4±0.4% |  |
| CSCC[C@H](NC(=O)[C@H](Cc1c[nH]c2ccccc12)NC(=O)CNC(=O)[C@H](Cc1ccc(O)cc1)NC(=O)[C@H](C)NC(=O)[C@@H](CCC(=O)O)NC(=O)[C@@H](CCC(=O)O)NC(=O)[C@@H](CCC(=O)O)NC(=O)[C@@H](CCC(=O)O)NC(=O)[C@@H](CCC(=O)O)NC(=O)[C@@H](CCC(=O)O)NC(=O)CN1CCN(CC(=O)O)CCN(CC(=O)O)CCN(CC(=O)O)CC1)C(=O)N[C@@H](CC(=O)O)C(=O)N[C@@H](Cc1ccccc1)C(N)=O [^177Lu-PP-F11, metal not drawn, reference compound] |  |  |  |  | 5.5% |
| CCCC[C@H](NC(=O)[C@H](Cc1c[nH]c2ccccc12)NC(=O)CNC(=O)[C@H](Cc1ccc(O)cc1)NC(=O)[C@H](C)NC(=O)[C@@H](CCC(=O)O)NC(=O)[C@@H](CCC(=O)O)NC(=O)[C@@H](CCC(=O)O)NC(=O)[C@@H](CCC(=O)O)NC(=O)[C@@H](CCC(=O)O)NC(=O)[C@@H](CCC(=O)O)NC(=O)CN1CCN(CC(=O)O)CCN(CC(=O)O)CCN(CC(=O)O)CC1)C(=O)N[C@@H](CC(=O)O)C(=O)N[C@@H](Cc1ccccc1)C(N)=O [^177Lu-PP-F11N, metal not drawn, reference compound] |  |  |  | 22.3% | 12.7% |
